Laboratory results taken from the supplement of paper PMC13380429.

Columns and labels:
Settings in all cases: 72 h
U2OS [1] = experiment: drug sensitivity score (DSS) for viability; higher = more toxic; extreme values may be limits of the assay
Caco-2 [2] = experiment: as above
Vero E6 [3] = experiment: as above
HepG2 [4] = experiment: as above
Calu-3 [5] = experiment: as above
U2OS [6] = experiment: relative viability EC50 (midpoint between 100% and the lowest measured viability); higher = less toxic
Caco-2 [7] = experiment: as above
Vero E6 [8] = experiment: as above
HepG2 [9] = experiment: as above
Calu-3 [10] = experiment: as above
U2OS [11] = experiment: cell viability relative to DMSO; higher = less toxic
Caco-2 [12] = experiment: as above
Vero E6 [13] = experiment: as above
HepG2 [14] = experiment: as above
Calu-3 [15] = experiment: as above

Structure (SMILES) | drug sensitivity score (U2OS [1]) | drug sensitivity score (Caco-2 [2]) | drug sensitivity score (Vero E6 [3]) | drug sensitivity score (HepG2 [4]) | drug sensitivity score (Calu-3 [5]) | relative viability EC50 (U2OS [6]) [µM] | relative viability EC50 (Caco-2 [7]) [µM] | relative viability EC50 (Vero E6 [8]) [µM] | relative viability EC50 (HepG2 [9]) [µM] | relative viability EC50 (Calu-3 [10]) [µM] | cell viability (U2OS [11]; 1 nM) [%] | cell viability (U2OS [11]; 10 nM) [%] | cell viability (U2OS [11]; 100 nM) [%] | cell viability (U2OS [11]; 1000 nM) [%] | cell viability (U2OS [11]; 10000 nM) [%] | cell viability (Caco-2 [12]; 1 nM) [%] | cell viability (Caco-2 [12]; 10 nM) [%] | cell viability (Caco-2 [12]; 100 nM) [%] | cell viability (Caco-2 [12]; 1000 nM) [%] | cell viability (Caco-2 [12]; 10000 nM) [%] | cell viability (Vero E6 [13]; 1 nM) [%] | cell viability (Vero E6 [13]; 10 nM) [%] | cell viability (Vero E6 [13]; 100 nM) [%] | cell viability (Vero E6 [13]; 1000 nM) [%] | cell viability (Vero E6 [13]; 10000 nM) [%] | cell viability (HepG2 [14]; 1 nM) [%] | cell viability (HepG2 [14]; 10 nM) [%] | cell viability (HepG2 [14]; 100 nM) [%] | cell viability (HepG2 [14]; 1000 nM) [%] | cell viability (HepG2 [14]; 10000 nM) [%] | cell viability (Calu-3 [15]; 1 nM) [%] | cell viability (Calu-3 [15]; 10 nM) [%] | cell viability (Calu-3 [15]; 100 nM) [%] | cell viability (Calu-3 [15]; 1000 nM) [%] | cell viability (Calu-3 [15]; 10000 nM) [%]
O=C(O)c1ccc(OCCn2ccnc2)cc1 [dazoxiben] | 0 | 0 | 0 | 0 | 0 | > 10 | > 10 | > 10 | > 10 | > 10 | 99.8 | 96.5 | 103 | 91.4 | 103 | 108 | 92.7 | 114 | 98.2 | 101 | 96.3 | 101 | 96.9 | 103 | 110 | 104 | 103 | 84.5 | 102 | 89.8 | 101 | 97.7 | 103 | 102 | 97.7
Oc1ccc(Nc2nc(-c3ccc(Cl)cc3)cs2)cc1 [SKI-II] | – | 0 | 0 | 0 | 0.5 | – | > 10 | > 10 | > 10 | > 10 | – | – | – | – | – | 100 | 98.1 | 104 | 99.9 | 90 | 102 | 104 | 99.2 | 107 | 97.5 | 90.8 | 68.7 | 106 | 81.3 | 98 | 103 | 96.2 | 97.8 | 90.5 | 85.6
CC/C(=C(/CC)c1ccc(OP(=O)(O)O)cc1)c1ccc(OP(=O)(O)O)cc1 [fosfestrol] | 0 | 0 | 0 | 0 | 0 | > 10 | > 10 | > 10 | > 10 | > 10 | 93.4 | 105 | 102 | 102 | 105 | 84.6 | 93.5 | 97.2 | 94.5 | 104 | 94.2 | 92.8 | 92.4 | 94.8 | 108 | 102 | 97.6 | 105 | 97.1 | 107 | 87 | 84.9 | 92.5 | 108 | 117
CC(=O)Nc1ccc(C(=O)O)cc1 [acedoben] | 0 | 0 | – | 0 | 0 | > 10 | > 10 | – | > 10 | > 10 | 97.4 | 104 | 97.3 | 98 | 102 | 88.6 | 100 | 95.6 | 86.4 | 109 | – | – | – | – | – | 114 | 110 | 107 | 96.8 | 104 | 101 | 99.4 | 96.7 | 100 | 108
Fc1ccc(-c2cncc(CN3CCN(c4cccc5c4OCCO5)CC3)c2)cc1 [adoprazine] | 0 | 0 | 0 | 0 | 0 | > 10 | > 10 | > 10 | > 10 | > 10 | 98.2 | 99.7 | 92.1 | 104 | 95.4 | 91 | 102 | 98.5 | 109 | 100 | 103 | 98.6 | 93.9 | 98.8 | 105 | 104 | 90.6 | 92.8 | 106 | 91.7 | 102 | 105 | 93.8 | 94.2 | 104
COC(=O)Nc1ccc(-c2nc(N3CCOCC3)c3cnn(C4CCN(Cc5cccnc5)CC4)c3n2)cc1 [WYE-687] | 8.2 | 11.5 | 6.9 | 10.1 | 14.2 | 1.36 | 0.496 | 0.925 | 0.818 | 0.271 | 104 | 97 | 100 | 74.2 | 19 | 93.6 | 93.9 | 88 | 47.8 | 21.6 | 94.2 | 95.9 | 89.3 | 71.3 | 37.6 | 97.5 | 111 | 92.8 | 54 | 17.6 | 100 | 95.5 | 79.2 | 37.2 | 20.4
Cc1cc(-c2cc(O)ccc2Cl)cc2nnc(Nc3ccc(OCCN4CCCC4)cc3)nc12 | 8.7 | 8.4 | 6.4 | 6 | 6.5 | 1.74 | 1.85 | 2.69 | 2.92 | 2.67 | 104 | 104 | 106 | 80 | 0 | 94 | 94.7 | 101 | 82.5 | 0.3 | 97.8 | 100 | 96.3 | 94 | 0 | 94.5 | 97.3 | 106 | 96.6 | 0 | 100 | 94.8 | 101 | 93.8 | 0.1
CCC(C)(Oc1ccc(C2(c3ccc(OC(C)(CC)C(=O)O)cc3)CCCCC2)cc1)C(=O)O (centres undefined) [clinofibrate] | 0 | 0 | 0 | 0 | 0 | > 10 | > 10 | > 10 | > 10 | > 10 | 96.9 | 98.3 | 102 | 95.6 | 94.9 | 103 | 98.2 | 99 | 105 | 104 | 96.4 | 101 | 96 | 99.2 | 107 | 93.9 | 106 | 92.6 | 120 | 108 | 96.1 | 93.7 | 99.9 | 102 | 98.9
O=C(OOC(=O)c1ccccc1)c1ccccc1 [benzoyl-peroxide] | 0 | 0 | 0 | 0 | 0 | > 10 | > 10 | > 10 | > 10 | > 10 | 98 | 95.2 | 99.3 | 97.6 | 94.1 | 102 | 87.9 | 96.6 | 91.2 | 99.4 | 95.6 | 98.8 | 92 | 95 | 105 | 92.1 | 104 | 99.1 | 110 | 107 | 99 | 95.8 | 103 | 99 | 103
COc1ccc2c(c1)[C@]13CCCC[C@@H]1[C@H](C2)N(C)CC3 [dextromethorphan] | 0 | 0 | 0 | 0 | 0 | > 10 | > 10 | > 10 | > 10 | > 10 | 97.1 | 98.3 | 99.7 | 95.3 | 97.1 | 98.1 | 98.9 | 104 | 97.7 | 97.7 | 92.1 | 100 | 97.3 | 95.9 | 104 | 111 | 108 | 95.8 | 103 | 109 | 95.6 | 106 | 89.6 | 99.3 | 102
CCN(CC)C(=O)/C(C#N)=C/c1cc(O)c(O)c([N+](=O)[O-])c1 [entacapone] | 0 | 0 | 0 | 0 | 0 | > 10 | > 10 | > 10 | > 10 | > 10 | 96.8 | 102 | 98 | 98.9 | 99.7 | 93.7 | 98.4 | 95.5 | 96 | 93.2 | 100 | 99.2 | 93.2 | 96 | 100 | 98.3 | 84.1 | 102 | 92.2 | 100 | 92.3 | 86.9 | 94.7 | 98.5 | 101
C[C@]12CC[C@@H]3c4ccc(O)cc4CC[C@H]3[C@@H]1CC[C@@H]2OC(=O)CCC1CCCC1 [estradiol-cypionate] | 0 | 0 | – | 0 | 0 | > 10 | > 10 | – | > 10 | > 10 | 99.6 | 104 | 99.2 | 100 | 96.7 | 99.9 | 106 | 85.4 | 97.2 | 90 | – | – | – | – | – | 103 | 96.5 | 105 | 95.8 | 98.8 | 82 | 90.4 | 103 | 93 | 102
CC(=O)N1CCC(C(=O)N(CCCN2CCC(Cc3ccc(C(N)=O)cc3)CC2)c2ccc(C)c(Cl)c2)CC1 [TAK-220] | 0 | 0 | 0 | 0 | 0 | > 10 | > 10 | > 10 | > 10 | > 10 | 97.3 | 99.3 | 99.4 | 99.9 | 95.3 | 85.2 | 95.1 | 93.5 | 102 | 98.3 | 113 | 101 | 106 | 92.4 | 106 | 99.9 | 87.2 | 94.1 | 94.5 | 98.6 | 100 | 101 | 98.3 | 101 | 97.9
Cc1ccc(Cl)c(OC[C@H](O)CNC(C)C)c1 [1-(2-chloro-5-methylphenoxy)-3-(isopropylamino)-2-propanol] | 0 | 0 | 0 | 0 | 0 | > 10 | > 10 | > 10 | > 10 | > 10 | 104 | 97.2 | 101 | 106 | 101 | 95.1 | 101 | 99.1 | 91.1 | 94.8 | 104 | 103 | 95.9 | 104 | 92.8 | 93.5 | 100 | 108 | 104 | 103 | 96.6 | 101 | 103 | 108 | 102
